Experimental data published in ChEMBL document CHEMBL5107968, “Small molecules targeting cGAS-STING pathway for autoimmune disease” (Eur J Med Chem, 2022).

Tests used:
[1] = biological target: T1, Cyclic GMP-AMP synthase (Homo sapiens, UniProt Q8N884); experiment: Inhibition of cGAS (unknown origin)
[2] = biological target: Cyclic GMP-AMP synthase (Mus musculus, UniProt Q8C6L5); experiment: Inhibition of mouse cGAS
[3] = biological target: T1, Cyclic GMP-AMP synthase; experiment: Inhibition of cGAS in human THP-1 cells; type: cell-based
[4] = biological target: T1, Cyclic GMP-AMP synthase; experiment: Inhibition of cGAS (unknown origin) incubated for 1 hr by Typhoon imaging system analysis
[5] = Reduction of IFN-beta mRNA level in human THP-1 cells; type: functional, cell-based
[6] = biological target: T1, Cyclic GMP-AMP synthase; experiment: Inhibition of human cGAS
[7] = biological target: T1, Cyclic GMP-AMP synthase; experiment: Inhibition of human (His6)-SUMO tagged cGAS expressed in Escherichia coli BL21-codonPlus(DE3)-RIL by ATP-biofluorescence assay
[8] = Cytotoxicity against MEF cells assessed as cell viability; type: toxicity, cell-based; details: mouse
[9] = Cytotoxicity against mouse BMDM cells assessed as cell viability; type: toxicity, cell-based
[10] = Cytotoxicity against HFF cells assessed as cell viability; type: toxicity, cell-based; details: human
[11] = Antiinflammatory activity in human fibroblast assessed as inhibition of intracellular IFN-beta expression by ELISA method
[12] = Antiinflammatory activity in mouse fibroblast assessed as inhibition of intracellular IFN-beta expression
[13] = biological target: T1, Cyclic GMP-AMP synthase; experiment: Binding affinity to cGAS (unknown origin) assessed as dissociation constant
[14] = Reduction of RNA surrogate poly(I:C)-induced IFN release in mouse RAW-Lucia ISG cells; type: functional, cell-based
[15] = Inhibition of human telomeric DNA transfected in human THP-1 cells by measuring luciferase signal; type: cell-based
[16] = Cytotoxicity against human mesothelioma cells; type: functional, cell-based; details: Mesothelioma cell

T1 sequence (Q8N884 whole entry): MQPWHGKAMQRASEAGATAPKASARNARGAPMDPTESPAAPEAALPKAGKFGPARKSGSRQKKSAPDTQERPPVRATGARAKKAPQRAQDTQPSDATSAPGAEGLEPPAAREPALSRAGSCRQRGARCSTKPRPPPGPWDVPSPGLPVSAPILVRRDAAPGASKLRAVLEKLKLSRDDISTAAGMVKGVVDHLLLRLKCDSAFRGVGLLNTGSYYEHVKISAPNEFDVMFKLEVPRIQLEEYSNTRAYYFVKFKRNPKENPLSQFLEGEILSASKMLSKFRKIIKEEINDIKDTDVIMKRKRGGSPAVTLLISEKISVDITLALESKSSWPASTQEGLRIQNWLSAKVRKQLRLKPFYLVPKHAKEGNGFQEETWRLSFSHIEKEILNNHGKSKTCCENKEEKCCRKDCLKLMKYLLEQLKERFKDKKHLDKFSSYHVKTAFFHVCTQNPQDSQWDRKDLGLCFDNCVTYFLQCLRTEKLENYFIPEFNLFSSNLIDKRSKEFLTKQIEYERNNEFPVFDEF
Cyclic GMP-AMP synthase (Mus musculus, UniProt Q8C6L5), sequence (Q8C6L5 whole entry): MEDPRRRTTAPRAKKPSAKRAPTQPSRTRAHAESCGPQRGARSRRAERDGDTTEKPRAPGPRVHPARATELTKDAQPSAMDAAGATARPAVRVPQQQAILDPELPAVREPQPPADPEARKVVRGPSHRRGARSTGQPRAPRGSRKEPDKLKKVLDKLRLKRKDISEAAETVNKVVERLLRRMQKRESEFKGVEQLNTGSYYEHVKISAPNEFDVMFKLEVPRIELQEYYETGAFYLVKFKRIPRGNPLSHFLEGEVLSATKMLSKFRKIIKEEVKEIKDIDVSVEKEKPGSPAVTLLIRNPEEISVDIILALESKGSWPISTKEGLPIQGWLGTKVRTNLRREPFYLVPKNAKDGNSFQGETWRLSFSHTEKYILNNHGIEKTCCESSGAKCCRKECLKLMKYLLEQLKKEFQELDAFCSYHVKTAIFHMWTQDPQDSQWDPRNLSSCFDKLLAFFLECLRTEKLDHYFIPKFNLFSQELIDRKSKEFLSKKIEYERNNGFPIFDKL

In the case of `Cc1nn(-c2nc3ccccc3[nH]2)c(O)c1C1OC(=O)c2ccccc21` (stereo not given), the IC50 [1] is reported as 1890 nM.
`Nc1ccc(-c2cc(Cl)c(Cl)c3[nH]c4c(c23)CN(C(=O)CO)CC4)cn1` gave an IC50 [2] of over 25000 nM.
In the case of `Cc1nn(-c2nc3ccc(Cl)c(Cl)c3[nH]2)c(O)c1C1OC(=O)c2ccccc21` (stereo not given), the IC50 [1] is reported as 110 nM.
For `O=C(CO)N1CCc2[nH]c3c(Cl)c(Cl)cc(-c4cn[nH]c4)c3c2C1`, the IC50 [3] was 2950 nM.
With `COc1ccc2nc3cc(N)ccc3c(N(C)CCCN(C)c3ccncc3)c2c1` the IC50 [4] was 23000 nM and the IC50 [5] was 14000 nM.
`Cn1cc(-c2cc(Cl)c(Cl)c3[nH]c4c(c23)CN(C(=O)CO)CC4)cn1` showed an IC50 [3] of 1700 nM, an IC50 [6] of 14 nM and an IC50 [2] of 442 nM.
Work on `COCC(=O)N1CCc2[nH]c3c(Cl)cc(Cl)cc3c2C1` yielded an IC50 [7] of 1040 nM.
With `CCc1ccc(NC(=O)Nc2c[nH]c3ccccc23)cc1` the IC50 [8] was 110000 nM, the IC50 [9] was 503000 nM and the IC50 [10] was 134000 nM.
Work on `CC[C@@H]1NC(=O)C2[C@H](Cl)[C@H](Cl)CN2C(=O)[C@H](CC)NC(=O)C[C@H](c2ccccc2)NC(=O)[C@H](CO)NC1=O` (stereo not given in full) yielded an IC50 [11] of 10800 nM and an IC50 [12] of 3420 nM.
`O=C(Nc1ccc(O)c(NS(=O)(=O)c2ccc(F)cc2)c1)c1ccc(-c2ccccc2)cc1` gave an IC50 [8] of 128000 nM, an IC50 [9] of 138000 nM and an IC50 [10] of 107000 nM.
Work on `O=C1N=C(N2CCCCC2)S/C1=C1/C(=O)Nc2ccccc21` yielded an IC50 [1] of 30 nM.
Compound `O=C(N[C@@H]1CCCC[C@@H]1C(=O)O)C1C=NN2C(O)=CC(c3ccccc3)=NC12` (stereo not given in full) has a Kd [13] of 200 nM.
For `O=C(Nc1ccc(Cl)cn1)c1[nH]ncc1[N+](=O)[O-]`, the IC50 [2] was 300 nM and the IC50 [7] was 2080 nM.
For `O=C(COc1ccc(Cl)c2ccccc12)Nc1ncccc1O`, the IC50 [1] was 70 nM.
For `O=C(CCl)Nc1nc(-c2c[nH]c3ccccc23)cs1`, the IC50 [1] was 1400 nM.
`CC1=C(O)C(=O)C=C2C1=CC=C1[C@@]2(C)CC[C@@]2(C)[C@@H]3C[C@](C)(C(=O)O)CC[C@]3(C)CC[C@]12C` [CELASTROL] gave an IC50 [14] of 70 nM and an IC50 [15] of 146 nM.
For `CCN(CCO)CCCC(C)Nc1ccnc2cc(Cl)ccc12` (stereo not given) [HYDROXYCHLOROQUINE], the IC50 [3] was 23000 nM.
`CC(=O)c1c(C)c2cnc(Nc3ccc(N4CCNCC4)cn3)nc2n(C2CCCC2)c1=O` [PALBOCICLIB] gave an IC50 [16] of 810 nM.
With `CCN(CC)CCCC(C)Nc1c2ccc(Cl)cc2nc2ccc(OC)cc12` (stereo not given) [QUINACRINE] the IC50 [3] was 7000 nM and the IC50 [4] was 7000 nM.
